System: Py-3Y1-S2, TE-13, VERO and HepG2 cells
Assay: Lactate concentration after 2 to 3 days culture, lactate metabolism, mean over four cell types (Example 9)
Assay type: cell-based, rat, human, African green monkey
Conditions: drug 0.5 mg/ml, 2 to 3 days (48 to 72 hours) culture, mean of four experiments
Method: After the addition of the drug, the culture solution was diluted so that the weight ratio of the culture solution to distilled water was 1:19, and the lactate concentration of the diluted culture solution was measured. The lactate concentration was measured using a lactate assay kit (product name: Lactate Assay Kit-WST, product of Dojindo Laboratories).
First, samples of 2-amino-1-cyclohexylethanol (2-amino-1-cyclohexyl EOH) and 2-amino-1-phenylethanol (2-amino-1-phenyl EOH) were prepared in the same manner as in Example 1. Four types of cells were used as in Example 8, and each of the cells was cultured under the same conditions as in Example 1. […] Thereafter, the culture time was lengthened to 2 to 3 days (48 to 72 hours) compared to Example 8. As a control 1, the culture was performed in the same manner except that distilled water to which the drug was not added was added to the culture solution instead of the sample. As a control 2, the culture was performed in the same manner as the […] except that a sample of biguanide prepared in the same manner as in Example 1 was added to the culture solution instead of the sample. Then, the lactate concentration in each sample was measured in the same manner as in Example 6. Each of the four cells was used for a total of four experiments.

Q: With `NCC(O)c1ccccc1` (stereo not shown) [2-amino-1-phenylethanol] as the compound, how does the “lactate concentration in the culture solution compared to control 1” value read?
A: The value was “equivalent to that of control 1”.

Reference: patent publication US20210330606A1, “GLUCOSE CONSUMPTION ACCELERATOR AND GLYCOLYSIS ACCELERATOR” (SHINKO SANGYO Co., Ltd., priority 2018, published 2021)
